Data reported in patent US20250107525A1, “CARBOXYLIC ACID-DERIVED KETO-DIESTERS AND USES THEREOF” (The United States of America, as represented by the …, priority 2023, published 2025).
“Also recorded” adds a separate entry of the source.

Legend:
[1] = tested on: monocot bentgrass (Agrostis stolonifera); assay: primary bioassay, bentgrass seeds exposed to 1000 μM solution for 7 days; format: in vivo; details: for growth of bentgrass seedlings: compared to negative controls H2O or 10% acetone
Method: The phytotoxic activity of compounds belonging to formula (III), (V), or (VII) classes were evaluated in a primary bioassay. The synthetic triketone herbicides mesotrione and sulcotrione were used as positive controls. The seeds of monocot bentgrass (Agrostis stolonifera) and dicot Arabidopsis (Arabidopsis thaliana) were exposed for 7 days to 1000 μM solution of each chemical. […] Chlorosis of treated seedlings is a common symptom of HPPD enzyme inhibition, and the obtained results are an initial confirmation this mode of action for these new compounds. Next, a detailed assessment of phytotoxic activity of potential herbicide candidates was accomplished by measurement a growth of duckweed (Lemna paucicostata) frond surface (Table 1). Mesotrione and sulcotrione were used as positive controls.
(§1) The synthetic triketone herbicides mesotrione and sulcotrione were used as positive controls. For comparative purposes, water as well as 10% acetone in water were used as negative controls. The seeds of monocot bentgrass (Agrostis stolonifera) and dicot Arabidopsis (Arabidopsis thaliana) were exposed for 7 days to 1000 μM solution of each chemical. […] Chlorosis of treated seedlings is a common symptom of a typical HPPD enzyme inhibition, and the obtained results are an initial confirmation this mode of action for these new compounds.
The synthetic triketone herbicides mesotrione and sulcotrione were used as positive controls. For comparative purposes, water as well as 10% acetone in water were used as negative controls. The seeds of monocot bentgrass (Agrostis stolonifera) and dicot Arabidopsis (Arabidopsis thaliana) were exposed for 7 days to 1000 μM solution of each chemical.
as §1, with “The phytotoxic activity of compounds belonging to formula (VII) (compounds (VII-1) and (VII-2)) was evaluated in a primary bioassay. The synthetic” for “The synthetic”

[2] = tested on: duckweed (Lemna paucicostata); assay: secondary bioassay, dose-response curve based on growth rate of duckweed frond surface; format: in vivo; details: for IC50: Lemna aequinoctialis, growth rate of duckweed (Lemna paucicostata) frond surface, read-out: IC50 (μM), herbicidal activity in a secondary bioassay; for activity compared with commercial herbicides bentazon, clomazone, glyphosate, glufosinate, asulam, chloropropham and EPTC in the same bioassay: comparison with data of Michel, A., et al. (2004)
Method: The phytotoxic activity of compounds belonging to formula (III), (V), or (VII) classes were evaluated in a primary bioassay. […] The seeds of monocot bentgrass (Agrostis stolonifera) and dicot Arabidopsis (Arabidopsis thaliana) were exposed for 7 days to 1000 μM solution of each chemical. […] Next, a detailed assessment of phytotoxic activity of potential herbicide candidates was accomplished by measurement a growth of duckweed (Lemna paucicostata) frond surface (Table 1).
Next, a detailed assessment of the phytotoxic activity of the potential herbicide candidates was done by calculating dose-response curve base on growth rate of duckweed (Lemna paucicostata) frond surface.
Next, a detailed assessment of the phytotoxic activity of the potential herbicide candidates was done by calculating dose-response curves base on growth rate of duckweed (Lemna paucicostata) frond surface.
Next, a detailed assessment of the phytotoxic activity of the potential herbicide candidates was done by calculating dose-response curve based on the growth rate of duckweed (Lemna paucicostata) frond surface.

SMILES | chlorosis of bentgrass seedlings [1] | growth of bentgrass seedlings [1] | IC50 [2] [µM] | activity compared with commercial herbicides bentazon, clomazone, glyphosate, glufosinate, asulam, chloropropham and EPTC in the same bioassay [2]
CC1(C)OC(=O)C(=C(O)c2ccc(S(C)(=O)=O)cc2Cl)C(=O)O1 [III-1, 5-(2-chloro-4-(methylsulfonyl)benzoyl)-2,2-dimethyl-1,3-dioxane-4,6-dione] | did not develop chlorosis | growth of some of them was reduced | – | –
CC1(C)OC(=O)C(=C(O)c2ccc(C(F)(F)F)cc2[N+](=O)[O-])C(=O)O1 [III-2, 2,2-dimethyl-5-(2-nitro-4-(trifluoromethyl)benzoyl)-1,3-dioxane-4,6-dione] | most of them were chlorotic; also recorded: most of them developed symptoms of chlorosis | significantly impacted growth; also recorded: significantly reduced growth | 1.9 | more active
CC1(C)OC(=O)C(=C(O)c2ccc(S(C)(=O)=O)cc2[N+](=O)[O-])C(=O)O1 [III-3, 2,2-dimethyl-5-(4-(methylsulfonyl)-2-nitrobenzoyl)-1,3-dioxane-4,6-dione] | did not develop chlorosis | growth of some of them was reduced | – | –
CC1(C)OC(=O)C(=C(O)CCc2ccccc2)C(=O)O1 [III-4, 2,2-dimethyl-5-(3-phenylpropanoyl)-1,3-dioxane-4,6-dione] | – | – | 13.2 | –
O=C1OC2(CCCC2)OC(=O)C1=C(O)CCc1ccccc1 [III-5, 8-(3-phenylpropanoyl)-6, 10-dioxaspiro [4.5] decane-7,9-dione] | – | – | 17.9 | –
CCCC1(CCC)OC(=O)C(=C(O)CCc2ccccc2)C(=O)O1 [III-6, 5-(3-phenylpropanoyl)-2,2-dipropyl-1,3-dioxane-4,6-dione] | – | – | 2.6 | more active
CC(C)CC(O)=C1C(=O)OC(C)(C)OC1=O [VII-1, 2,2-dimethyl-5-(3-methylbutanoyl)-1,3-dioxane-4,6-dione] | – | – | 1.14 | –
CC(C)CC(O)=C1C(=O)OC2(CCCC2)OC1=O [VII-2, 8-(3-methylbutanoyl)-6,10-dioxaspiro [4.5] decane-7,9-dione] | – | – | 3.3 | –
